Article PMC8117417, “Novel Trifluoromethyl Pyrimidinone Compounds With Activity Against Mycobacterium tuberculosis” (Frontiers in Chemistry, 2021)
Converted amounts (≈) assume the structure as drawn.

Columns and labels:
HepG2 human liver cells = test: Cytotoxicity against HepG2 cells (CellTiter-Glo); type: cell-based; conditions: concentration required to inhibit growth of HepG2 cells by 50%, 72 h exposure
Description: Cytotoxicity was measured after 72 h of compound exposure at 37°C and 5% CO2 using CellTiter-Glo (Promega).

M. tuberculosis H37Rv = test: Minimum inhibitory concentration (IC90) against fluorescent M. tuberculosis in liquid culture; conditions: for IC90: read-out: MTB IC90; for IC90 / MTB IC90: concentration required to inhibit M. tuberculosis growth by 90%, aerobic culture, 5 days, 7H9-OADC-Tw
[1] = MTB IC90 assay, Figure 1 primary hits and reference drugs in this assay

Compound	IC90 (M. tuberculosis H37Rv)	MIC (M. tuberculosis H37Rv; [1])	IC50 (HepG2 human liver cells; Homo sapiens, HepG2, 72 h)	melting point	also measured
5-Cyclopentyl-2-(Pyridin-2-yl)-6-(Trifluoromethyl)Pyrimidin-4(3H)-One [Compound 57]	10 ± 2.6 µM	–	–	–	IC50 (HepG2 human liver cells): 5.9 ± 0.57 µM
O=C1c2ccccc2-c2nn3c(=O)cc(C(F)(F)F)nc3nc21 [Compound 1]	–	3.1 ± 0.49 µM (≈ 0.986 µg/mL)	–	–	–
CCCCc1c(C(F)(F)F)nc(-c2ccccn2)[nH]c1=O [Compound 2]	–	6.8 ± 2.0 µM (≈ 2.02 µg/mL)	5.3 ± 1.2 µM	–	–
Cc1c(C(F)(F)F)nc(-c2cc(COc3ccc(O)cc3)ccn2)[nH]c1=O [Compound 3]	7.6 ± 0.85 µM	7.6 ± 0.85 µM (≈ 2.87 µg/mL)	7.4 ± 0.28 µM	–	–
O=c1cc(C(F)(F)F)nc(-c2cc(CCc3ccc(O)cc3)ccn2)[nH]1 [Compound 4]	–	4.2 ± 2.1 µM (≈ 1.52 µg/mL)	–	–	–
O=c1cc(C(F)(F)F)nc(-c2cc(OCc3ccccc3)ccn2)[nH]1 [Compound 6]	1.3 ± 0.21 µM	1.3 ± 0.21 µM (≈ 0.451 µg/mL)	2.5 ± 0.78 µM	–	–
COC(=O)Cc1ccc(OCc2ccnc(-c3nc(C(F)(F)F)cc(=O)[nH]3)c2)cc1 [Compound 7]	3.3 ± 0.71 µM	3.3 ± 0.71 µM (≈ 1.38 µg/mL)	7.1 ± 0.14 µM	–	–
N#Cc1ccc(COc2ccnc(-c3nc(C(F)(F)F)cc(=O)[nH]3)c2)cc1 [Compound 9]	3.7 ± 0.85 µM	3.7 ± 0.85 µM (≈ 1.38 µg/mL)	6.1 ± 2.1 µM	–	–
O=c1[nH]c(-c2ccccn2)nc(C(F)(F)F)c1CC1CC1 [Compound 11]	7.9 ± 2.1 µM	7.9 ± 2.1 µM (≈ 2.33 µg/mL)	11 ± 4.7 µM	–	–
CCOC(=O)CCCc1c(C(F)(F)F)nc(-c2ccccn2)[nH]c1=O [Compound 12]	3.1 ± 0.57 µM	3.1 ± 0.57 µM (≈ 1.1 µg/mL)	10 ± 4.3 µM	–	–
CCCc1c(C(F)(F)F)nc(-c2ccccn2)[nH]c1=O [Compound 13]	10 ± 1.3 µM	10 ± 1.3 µM (≈ 2.83 µg/mL)	12 ± 1.4 µM	–	–
CC(C)Cc1c(C(F)(F)F)nc(-c2ccccn2)[nH]c1=O [Compound 14]	5.8 ± 1.3 µM	5.8 ± 1.3 µM (≈ 1.72 µg/mL)	7.5 ± 1.3 µM	–	–
N#Cc1ccc(OCc2ccnc(-c3nc(C(F)(F)F)cc(=O)[nH]3)c2)cc1 [Compound 15]	5.3 ± 1.3 µM	5.3 ± 1.3 µM (≈ 1.97 µg/mL)	7.4 ± 1.6 µM	–	–
O=c1cc(C(F)(F)F)nc(-c2ccccn2)[nH]1 [Compound 16, 2-(Pyridin-2-yl)-6-(Trifluoromethyl)Pyrimidin-4(3H)-One]	4.9 ± 0.79 µM	–	> 100 µM	–	HepG2 IC50 (HepG2 human liver cells): lacked cytotoxicity
O=c1cc(C(F)(F)F)nc(-c2ncccc2O)[nH]1 [Compound 17, 2-(3-Hydroxypyridin-2-yl)-6-(Trifluoromethyl)Pyrimidin-4(3H)-One]	3.3 ± 1.1 µM	–	16 ± 7.6 µM	–	–
O=c1cc(C(F)(F)F)nc(-c2ncccn2)[nH]1 [Compound 18, 6-(Trifluoromethyl)-[2,2′-Bipyrimidin]-4(3H)-One]	> 20 µM	–	> 100 µM	236 to 238 °C	HepG2 IC50 (HepG2 human liver cells): abolished activity and cytotoxicity; MTB IC90 (M. tuberculosis H37Rv): abolished activity
COc1cccnc1-c1nc(C(F)(F)F)cc(=O)[nH]1 [Compound 19, 2-(3-Methoxypyridin-2-yl)-6-(Trifluoromethyl)Pyrimidin-4(3H)-One]	> 20 µM	–	> 100 µM	178 to 179 °C	–
O=c1cc(C(F)(F)F)nc(-c2cccnc2)[nH]1 [Compound 20, 2-(Pyridin-3-yl)-6-(Trifluoromethyl)Pyrimidin-4(3H)-One]	> 20 µM	–	> 100 µM	276 to 277 °C	–
O=c1cc(C(F)(F)F)nc(-c2ncccc2Cl)[nH]1 [Compound 21, 2-(3-Chloropyridin-2-yl)-6-(Trifluoromethyl)Pyrimidin-4(3H)-One]	> 20 µM	–	> 100 µM	–	–
Cc1c(C(F)(F)F)nc(-c2cccnc2)[nH]c1=O [Compound 22, 5-Methyl-2-(Pyridin-3-yl)-6-(Trifluoromethyl)Pyrimidin-4(3H)-One]	> 20 µM	–	> 100 µM	213 to 215 °C	–
Cc1c(C(F)(F)F)nc(-c2ccncc2)[nH]c1=O [Compound 23, 5-Methyl-2-(Pyridin-4-yl)-6-(Trifluoromethyl)Pyrimidin-4(3H)-One]	> 20 µM	–	> 100 µM	228 to 230 °C	–
O=c1cc(C(F)(F)F)nc(-c2ccccc2)[nH]1 [Compound 24, 2-Phenyl-6-(Trifluoromethyl)Pyrimidin-4(3H)-One]	> 20 µM	–	> 100 µM	225 to 227 °C	–

Compound	IC90 (M. tuberculosis H37Rv)	MIC (M. tuberculosis H37Rv; [1])	IC50 (HepG2 human liver cells; Homo sapiens, HepG2, 72 h)	melting point	also measured
O=c1cc(C(F)(F)F)nc(-c2ccccc2OC(F)(F)F)[nH]1 [Compound 25]	> 20 µM	–	> 100 µM	–	–
O=c1cc(C(F)(F)F)nc(-c2ncccc2F)[nH]1 [Compound 26, 2-(3-Fluoropyridin-2-yl)-6-(Trifluoromethyl)Pyrimidin-4(3H)-One]	> 20 µM	–	> 100 µM	–	–
O=c1cc(C(F)(F)F)nc(C2CCCCC2)[nH]1 [Compound 27, 2-Cyclohexyl-6-(Trifluoromethyl)Pyrimidin-4(3H)-One]	> 20 µM	–	90 ± 17 µM	198 to 199 °C	–
O=c1cc(C(F)(F)F)nc(-c2ccccc2F)[nH]1 [Compound 28, 2-(2-Fluorophenyl)-6-(Trifluoromethyl)Pyrimidin-4(3H)-One]	> 20 µM	–	> 100 µM	168 to 169 °C	–
Cc1cccc(C)c1-c1nc(C(F)(F)F)cc(=O)[nH]1 [Compound 29, 2-(2,6-Dimethylphenyl)-6-(Trifluoromethyl)Pyrimidin-4(3H)-One]	> 20 µM	–	> 100 µM	201 to 202 °C	–
Cc1ccccc1-c1nc(C(F)(F)F)cc(=O)[nH]1 [Compound 30, 2-(o-Tolyl)-6-(Trifluoromethyl)Pyrimidin-4(3H)-One]	> 20 µM	–	> 100 µM	155 to 156 °C	–
O=c1cc(C(F)(F)F)nc(-c2ccccc2O)[nH]1 [Compound 31, 2-(2-Hydroxyphenyl)-6-(Trifluoromethyl)Pyrimidin-4(3H)-One]	> 20 µM	–	79 ± 7.8 µM	236 to 238 °C	–
Cc1c(C(F)(F)F)nc[nH]c1=O [Compound 32, 5-Methyl-6-(Trifluoromethyl)Pyrimidin-4(3H)-One]	> 20 µM	–	> 100 µM	183 to 185 °C	MTB IC90 (M. tuberculosis H37Rv): no antibacterial activity
COc1ccccc1-c1nc(C(F)(F)F)c(C)c(=O)[nH]1 [Compound 34, 2-(2-Methoxyphenyl)-5-Methyl-6-(Trifluoromethyl)Pyrimidin-4(3H)-One]	–	–	95 ± 9.5 µM	158 to 160 °C	–
Cc1c(C(F)(F)F)nc(-c2ccccc2)[nH]c1=O [Compound 35, 5-Methyl-2-Phenyl-6-(Trifluoromethyl)Pyrimidin-4(3H)-One]	> 20 µM	–	> 100 µM	256 to 259 °C	–
Cc1c(C(F)(F)F)nc(-c2ccccc2F)[nH]c1=O [Compound 36, 2-(2-Fluorophenyl)-5-Methyl-6-(Trifluoromethyl)pyrimidin-4(3H)-One]	> 20 µM	–	> 100 µM	139 to 141 °C	–
Cc1c(C(F)(F)F)nc(-c2ccccc2Cl)[nH]c1=O [Compound 37, 2-(2-Chlorophenyl)-5-Methyl-6-(Trifluoromethyl)Pyrimidin-4(3H)-One]	> 20 µM	–	86 ± 24 µM	165 to 167 °C	–
Cc1c(C(F)(F)F)nc(-c2ncccc2Cl)[nH]c1=O [Compound 38, 2-(3-Chloropyridin-2-yl)-5-Methyl-6-(Trifluoromethyl)Pyrimidin-4(3H)-One]	> 20 µM	–	> 100 µM	–	–
COc1cccnc1-c1nc(C(F)(F)F)c(C)c(=O)[nH]1 [Compound 39, 2-(3-Methoxypyridin-2-yl)-5-Methyl-6-(Trifluoromethyl)Pyrimidin-4(3H)-One]	> 20 µM	–	> 100 µM	164 to 165 °C	–
Cc1c(C(F)(F)F)nc(C2CCCCC2)[nH]c1=O [Compound 40, 2-Cyclohexyl-5-Methyl-6-(Trifluoromethyl)Pyrimidin-4(3H)-One]	> 20 µM	–	> 100 µM	169 to 170 °C	–
Cc1c(C(F)(F)F)nc(-c2ncccn2)[nH]c1=O [Compound 41, 5-Methyl-6-(Trifluoromethyl)-[2,2′-Bipyrimidin]-4(3H)-One]	> 20 µM	–	> 100 µM	229 to 230 °C	–
Cc1c(C(F)(F)F)nc(-c2ncccc2F)[nH]c1=O [Compound 45, 2-(3-Fluoropyridin-2-yl)-5-Methyl-6-(Trifluoromethyl)Pyrimidin-4(3H)-One]	> 20 µM	–	> 100 µM	–	–
Cc1nc(-c2ccccn2)[nH]c(=O)c1C [Compound 49, 5,6-Dimethyl-2-(Pyridin-2-yl)Pyrimidin-4(3H)-One]	> 20 µM	–	88 ± 6.9 µM	–	–
COc1c(C(F)(F)F)nc(-c2ccccn2)[nH]c1=O [Compound 56, 5-Methoxy-2-(Pyridin-2-yl)-6-(Trifluoromethyl)Pyrimidin-4(3H)-One]	6.1 ± 0.26 µM	–	5 ± 0.82 µM	–	–
CC[C@@H](CO)NCCN[C@@H](CC)CO [ethambutol, reference compound]	–	3.3 ± 0.4 µM (≈ 0.674 µg/mL)	–	–	–
NNC(=O)c1ccncc1 [isoniazid, reference compound]	–	0.6 ± 0.2 µM (≈ 0.0823 µg/mL)	–	–	–
CO[C@H]1/C=C/O[C@@]2(C)Oc3c(C)c(O)c4c(O)c(c(/C=N/N5CCN(C)CC5)c(O)c4c3C2=O)NC(=O)/C(C)=C\C=C\[C@H](C)[C@H](O)[C@@H](C)[C@@H](O)[C@@H](C)[C@H](OC(C)=O)[C@@H]1C [rifampicin, reference compound]	–	–	–	–	MIC (M. tuberculosis H37Rv; reference drug in this assay): 0.008 ± 0.0002 µM (≈ 0.00658 µg/mL)
